The record followed here is US20260174769A1, “MACROCYCLIC COMPOUNDS AND METHODS OF USE” (AMGEN INC., priority 2022, published 2026).

Structures are written as SMILES. Counter-ions that a name gives are not always drawn.

Chain of His-tagged KRAS G12D protein (P01116 1-188 isoform P01116-2 G12D): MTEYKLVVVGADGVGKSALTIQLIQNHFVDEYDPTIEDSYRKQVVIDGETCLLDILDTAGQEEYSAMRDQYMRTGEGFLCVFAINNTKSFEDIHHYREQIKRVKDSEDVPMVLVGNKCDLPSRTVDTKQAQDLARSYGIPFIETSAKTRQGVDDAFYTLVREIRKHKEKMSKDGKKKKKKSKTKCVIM

The first test addresses His-tagged KRAS G12D protein (Homo sapiens, UniProt P01116, G12D). Kind of test: KRAS G12D TR-FRET Assay. The following applies: TR-FRET binding. It counts as binding. The procedure:
The His-tagged KRAS G12D protein (Amgen) was diluted to 20 nM in Assay Buffer (20 mM HEPES, pH 7.4, 10 mM MgCl2, 50 mM NaCl, 0.1% BSA, 0.01% Tween-20, 10 μM GDP) and 2 μL was added to the appropriate wells of the 384-well plate. The plate was incubated for 30 minutes at room temperature. Biotinylated KRPep-2d substrate (Amgen) was diluted to 20 nM in Assay Buffer and 2 μL was added to all wells and incubated for 1 hour at room temperature. Detection Reagent (0.4 nM LANCE Eu-W1024 Anti-6×His (Perkin Elmer AD0401), 5 nM streptavidin-d2 (Cisbio 610SADLA)) was prepared in Assay Buffer, then 4 μL was added to the plate and incubated for 1 hour at room temperature.
By IC50 is commonly meant the concentration that inhibits the measured activity by half. The molecule `O=C1OC[C@H]2C[C@@H]2c2c(Cl)cc3[nH]ncc3c2-c2ncc3c(nc(OC[C@@]45CCCN4C[C@H](F)C5)nc3c2F)N2CCC[C@H](C2)O1` (racemic) [Example 113] registered an IC50 of 10 nM.
Molecule `C[C@@]12CCCN(C1)c1nc(OC[C@@]34CCCN3C[C@H](F)C4)nc3c(F)c(ncc13)-c1cc(O)cc3c1[C@@H](CCCC(=O)N2)CCC3` (single isomer, unassigned) [Example 27, 2,2,2-trifluoroacetate salt] registered an IC50 of 7 nM.
Molecule `C[C@@]12CCCN(C1)c1nc(OC[C@@]34CCCN3C[C@H](F)C4)nc3c(F)c(ncc13)-c1cc(O)cc3c1[C@H](CCCC(=O)N2)CCC3` (single isomer, unassigned) [Example 28, 2,2,2-trifluoroacetate salt] showed an IC50 of 68 nM.
Regarding `Cc1cc2[nH]ncc2c2c1CCC[C@H](F)C(=O)N(C)[C@@H]1CCCN(C1)c1nc(OC[C@@]34CCCN3C[C@H](F)C4)nc3c(F)c-2ncc13` (single isomer, unassigned) [Example 51], the 50% inhibitory concentration (IC50) amounted to 10 nM.
As to `Cc1cc2[nH]ncc2c2c1CCC[C@@H](F)C(=O)N(C)[C@@H]1CCCN(C1)c1nc(OC[C@@]34CCCN3C[C@H](F)C4)nc3c(F)c-2ncc13` (single isomer, unassigned) [Example 52], the IC50 was found to be 19 nM.
`O=C1CCCCc2c(Cl)cc3[nH]ncc3c2-c2ncc3c(nc(OC[C@@]45CCCN4C[C@H](F)C5)nc3c2F)N2CC[C@@H]3CCN1[C@@H]3C2` (single isomer, unassigned) [Example 61] gave an IC50 of 79 nM.
`O=C1CCCCc2c(Cl)cc3[nH]ncc3c2-c2ncc3c(nc(OC[C@@]45CCCN4C[C@H](F)C5)nc3c2F)N2CC[C@H]3CCN1[C@H]3C2` (single isomer, unassigned) [Example 62]: the IC50 worked out at 3 nM.
On the same count and under the same terms, the value for `O=C1CCCc2c(F)ccc3cccc(c23)-c2ncc3c(nc(OC[C@@]45CCCN4C[C@H](F)C5)nc3c2F)N2CC[C@H]3CCN1[C@H]3C2` (single isomer, unassigned) [Example 72] was 3 nM.
As for `C[C@@]12CCCN(C1)c1nc(OC[C@@]34CCCN3C[C@H](F)C4)nc3c(F)c(ncc13)-c1cccc3ccc(F)c(c13)CCOC(=O)N2` (single isomer, unassigned) [Example 77], the IC50 worked out at 14 nM.
As to `C[C@]12CCCN(C1)c1nc(OC[C@@]34CCCN3C[C@H](F)C4)nc3c(F)c(ncc13)-c1cccc3ccc(F)c(c13)CCOC(=O)N2` (single isomer, unassigned) [Example 78], the IC50 was found to be 3810 nM.
`O=C1OC/C=C/c2c(Cl)cc3[nH]ncc3c2-c2ncc3c(nc(OC[C@@]45CCCN4C[C@H](F)C5)nc3c2F)N2CCC[C@H](C2)O1` (single isomer, unassigned) [Example 116]: the IC50 came out at 17 nM.
`O=C1OC/C=C\c2c(Cl)cc3[nH]ncc3c2-c2ncc3c(nc(OC[C@@]45CCCN4C[C@H](F)C5)nc3c2F)N2CCC[C@H](C2)O1` (single isomer, unassigned) [Example 122] showed a concentration for half-maximal inhibition (IC50) of 5 nM.
Take `Cc1cc2[nH]ncc2c2c1/C=C\COC(=O)O[C@@H]1CCCN(C1)c1nc(OC[C@@]34CCCN3C[C@H](F)C4)nc3c(F)c-2ncc13` (single isomer, unassigned) [Example 123]: the IC50 worked out at 8 nM.
In turn, `Fc1c2ncc3c(nc(OC[C@@]45CCCN4C[C@H](F)C5)nc13)N1CCOC[C@H](COCCCCc3c(Cl)cc4[nH]ncc4c3-2)C1` (single isomer, unassigned) [Example 136] registered a concentration for half-maximal inhibition (IC50) of 7 nM.
Same read-out and setting: the value for `Fc1c2ncc3c(nc(OC[C@@]45CCCN4C[C@H](F)C5)nc13)N1CCOC[C@@H](COCCCCc3c(Cl)cc4[nH]ncc4c3-2)C1` (single isomer, unassigned) [Example 137] was 4 nM; that for `Cc1cc2[nH]ncc2c2c1CCCC(F)C(=O)N[C@@H]1CCCCN(C1)c1nc(OC[C@@]34CCCN3C[C@H](F)C4)nc3c(F)c-2ncc13` (single isomer, unassigned) [Example 159] was 6 nM; that for `Cc1cc2[nH]ncc2c2c1CCCC(F)C(=O)N[C@@H]1CCCCN(C1)c1nc(OC[C@@]34CCCN3C[C@H](F)C4)nc3c(F)c-2ncc13` (single isomer, unassigned) [Example 160] was 4 nM.
As for `O=C1CCCCc2c(Cl)cccc2-c2ncc3c(nc(OC[C@@]45CCCN4C[C@H](F)C5)nc3c2F)N2CC[C@H]3CCN1[C@H]3C2` (single isomer, unassigned) [Example 162], the IC50 was 37 nM.
The molecule `O=C1CCCCc2c(Cl)cccc2-c2ncc3c(nc(OC[C@@]45CCCN4C[C@H](F)C5)nc3c2F)N2CC[C@@H]3CCN1[C@@H]3C2` (single isomer, unassigned) [Example 163] had an IC50 of 2840 nM.
Still for that read-out and setting: the figure for `C[C@]12CCCCN(C1)c1nc(OC[C@@]34CCCN3C[C@H](F)C4)nc3c(F)c(ncc13)-c1c(c(Cl)cc3[nH]ncc13)CCCCC(=O)N2` (single isomer, unassigned) [Example 165] is 12700 nM; for `C[C@@]12CCCCN(C1)c1nc(OC[C@@]34CCCN3C[C@H](F)C4)nc3c(F)c(ncc13)-c1c(c(Cl)cc3[nH]ncc13)CCCCC(=O)N2` (single isomer, unassigned) [Example 166] it is 5 nM.
The molecule `O=C1OCCCc2c(Cl)cc3[nH]ncc3c2-c2ncc3c(nc(OC[C@@]45CCCN4C[C@H](F)C5)nc3c2F)N2CC[C@@H]3CCN1[C@@H]3C2` (single isomer, unassigned) [Example 176] registered an IC50 of 287 nM.

The test is the same for the next values; noted with them: TR-FRET; read-out: KRAS G12D Binding IC50.
Take `CC12COCCN(C1)c1nc(OC[C@@]34CCCN3C[C@H](F)C4)nc3c(F)c(ncc13)-c1c(c(Cl)cc3[nH]ncc13)CCCc1nc2no1` (mixture of isomers) [Example 379, (1RS)-10-chloro-33-fluoro-24-(((2R,7a.S)-2-fluorotetrahydro-1H-pyrrolo[1,2-α]pyrrol-7a(5H)-yl)methoxy)-1-methyl-4,30-dioxa-3,13,14,19,23,25,27,34-octaazaheptacyclo[25.4.1.1~2,5~.1~18,22~.0~9,17~.0~12,16~.0~21,26~]tetratriaconta-2,5(34),9,11,14,16,18(33),19,21,23,25-undecaene]: the IC50 was found to be 9 nM.
Turning to `Fc1c2ncc3c(nc(OC[C@@]45CCCN4C[C@H](F)C5)nc13)N1CCCCC(C1)c1noc(n1)CCCc1c(Cl)cc3[nH]ncc3c1-2` (mixture of isomers) [Example 382, (1RS)-10-chloro-33-fluoro-24-(((2R,7a.S)-2-fluorotetrahydro-1H-pyrrolo[1,2-α]pyrrol-7a(5H)-yl)methoxy)-4-oxa-3,13,14,19,23,25,27,34-octaazaheptacyclo[25.4.1.1~2,5~.1~18,22~.0~9,17~0~12,16~.0~21,26~]tetratriaconta-2,5(34),9,11,14,16,18(33),19,21,23,25-undecaene], the half-maximal inhibitory concentration (IC50) turned out to be 5 nM.
Regarding `Fc1c2ncc3c(nc(OC[C@@]45CCCN4C[C@H](F)C5)nc13)N1CCC[C@H](C1)Cn1ncc(n1)[C@@H]1C[C@@H]1c1c(Cl)cc3[nH]ncc3c1-2` (relative stereo) [Example 383, (11R,13S,19R)-rel-9-chloro-32-fluoro-26-(((2.R.7aS)-2-fluorotetrahydro-1H-pyrrolo[1,2-α]pyrrol-7a(5H)-yl)methoxy)-5,6,16,17,23,25,27,31,34-nonaazaoctacyclo[26.3.1.1~14,17~1~19,23~.0~2,10~0~3,7~.0~11,13~.0~24,29~]tetratriaconta-1(32),2.4,7,9,14(34),15,24,26,28,30-undecaene], the IC50 came to 13 nM.
